Assay results from ChEMBL document CHEMBL1201862, “PubChem BioAssay data set” (2004).
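These data come from cells grown in 96-well plates and exposed to compound for 48 hours at five concentrations. The concentration for 50% growth inhibition is given as GI50.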 Activity calls are given as the source filed them. Rule as the data show it: active = GI50 up to about 1.1 µM and inactive = higher.

Key:
Assay in all cases: inhibition of tumour cell growth, NCI panel, 48 h
HT-29 = tested on: HT-29
MOLT-4 = tested on: MOLT-4
SK-MEL-2 = tested on: SK-MEL-2
SK-MEL-28 = tested on: SK-MEL-28
LOX IMVI = tested on: LOX IMVI
HCT-15 = tested on: HCT-15
UO-31 = tested on: UO-31
MDA-MB-435 = tested on: MDA-MB-435
SK-OV-3 = tested on: SK-OV-3
MDA-MB-231 = tested on: MDA-MB-231
HL-60 = tested on: HL-60
SR = tested on: SR
RXF 393 = tested on: RXF 393
KM12 = tested on: KM12
HCC 2998 = tested on: HCC 2998
U-251 = tested on: U-251
SW-620 = tested on: SW-620
786-0 = tested on: 786-0
EKVX = tested on: EKVX
UACC-62 = tested on: UACC-62

SMILES | GI50 (HT-29) | GI50 (MOLT-4) | GI50 (SK-MEL-2) | GI50 (SK-MEL-28) | GI50 (LOX IMVI) | GI50 (HCT-15) | GI50 (UO-31) | GI50 (MDA-MB-435) | GI50 (SK-OV-3) | GI50 (MDA-MB-231) | GI50 (HL-60) | GI50 (SR) | GI50 (RXF 393) | GI50 (KM12) | GI50 (HCC 2998) | GI50 (U-251) | GI50 (SW-620) | GI50 (786-0) | GI50 (EKVX) | GI50 (UACC-62)
Cc1cc(C)nc(NS(=O)(=O)c2ccc(NNc3c4ccccc4nc4c(C(=O)Nc5ccc(S(=O)(=O)N=C(N)N)cc5)cccc34)cc2)n1 | 26.6 µM (inactive) | 34.9 µM (inactive) | 3.64 µM (inactive) | 17.6 µM (inactive) | 33.7 µM (inactive) | 63.4 µM | 27.7 µM (inactive) | 39.1 µM (inactive) | 24.8 µM (inactive) | 49.1 µM (inactive) | 37.5 µM (inactive) | 27.5 µM (inactive) | > 100 µM (inactive) | 34.7 µM (inactive) | 39.3 µM (inactive) | 25.4 µM (inactive) | 71.6 µM (inactive) | 65.5 µM (inactive) | 30.5 µM (inactive) | 
CCNC(=S)NNC(=O)CSc1nc2ccc(I)cc2c(=O)n1Cc1ccccc1 | 18.1 µM (inactive) | 7.48 µM (inactive) | 29.4 µM (inactive) | 63.8 µM (inactive) | 34.9 µM (inactive) | 14.7 µM | 0.0299 µM (active) | 12.9 µM (inactive) | 35 µM (inactive) | 41.5 µM (inactive) | 1.81 µM (inactive) | 7.43 µM (inactive) | 11.8 µM (inactive) | 8.77 µM (inactive) | 17.6 µM (inactive) | 43.4 µM (inactive) | 37.8 µM (inactive) | 29.2 µM (inactive) | 15.8 µM (inactive) | > 27.6 µM (inactive)
CC(C)=CCC[C@@H](C)C1=C(O)C(O)C(C)=C2N=C(c3ccccc3)C(=O)OC21 (stereo partly drawn) | 6.81 µM (inactive) | > 7.41 µM (inactive) | 1.61 µM (inactive) | 3.07 µM (inactive) | 4.71 µM (inactive) | 2.31 µM | 5.22 µM (inactive) | 3.18 µM (inactive) | 1.12 µM (inactive) | 2.52 µM (inactive) | 0.521 µM (active) | > 9.84 µM (inactive) | 1.35 µM (inactive) | 4.44 µM (inactive) | 6.62 µM (inactive) | 1.57 µM (inactive) | 3.16 µM (inactive) | 7.8 µM (inactive) | 8.85 µM (inactive) | 1.07 µM (active)
COc1ccc(NC(=S)N/N=C/c2c(C)n(C)n(-c3ccccc3)c2=O)cc1 | 69.5 µM (inactive) | > 100 µM (inactive) | 32.1 µM (inactive) | 64.1 µM (inactive) | > 100 µM (inactive) | > 100 µM | 26.4 µM (inactive) | 51.4 µM (inactive) | 28.6 µM (inactive) | 17.5 µM (inactive) | > 100 µM (inactive) | 78.5 µM (inactive) | 23 µM (inactive) | > 100 µM (inactive) | > 100 µM (inactive) | 20.4 µM (inactive) | > 100 µM (inactive) | 24.1 µM (inactive) | 42.8 µM (inactive) | 51.1 µM (inactive)
Cc1cc(=O)oc2c(C)c3oc(CBr)c(Br)c3cc12 | 39.2 µM (inactive) | 8.59 µM (inactive) | 36.1 µM (inactive) | 44.4 µM (inactive) | 12.6 µM (inactive) | 30.1 µM | 18.6 µM (inactive) | 43.3 µM (inactive) | 43.3 µM (inactive) | 87.3 µM (inactive) | 85.1 µM (inactive) | 27.7 µM (inactive) | 19.8 µM (inactive) | 26.8 µM (inactive) | 19.3 µM (inactive) | 31.1 µM (inactive) | 16.9 µM (inactive) | 14.4 µM (inactive) | 92.3 µM (inactive) | 17.5 µM (inactive)
Cc1ccc(O)c(-c2cc(-c3cccc(Br)c3)on2)c1 | 25.5 µM (inactive) | 20.8 µM (inactive) | 21.5 µM (inactive) | 23.8 µM (inactive) | 16.3 µM (inactive) | 31.4 µM | 70.3 µM (inactive) | 21.7 µM (inactive) | 21.3 µM (inactive) | 30.1 µM (inactive) | 27 µM (inactive) | 25.1 µM (inactive) | 17.3 µM (inactive) | 20.3 µM (inactive) | 22.4 µM (inactive) | 17 µM (inactive) | 19.8 µM (inactive) | 40.4 µM (inactive) | 34.4 µM (inactive) | 28.6 µM (inactive)
CSc1nc2c(c(=O)n1C)N=C(c1ccc([N+](=O)[O-])cc1)CC(c1ccccc1)N2 (stereo not drawn) | > 100 µM (inactive) | 33 µM (inactive) | > 100 µM (inactive) | > 100 µM (inactive) | 78.9 µM (inactive) |  | > 100 µM (inactive) | > 100 µM (inactive) | > 100 µM (inactive) | 36.8 µM (inactive) | 20.5 µM (inactive) | > 100 µM (inactive) | > 100 µM (inactive) | 84.3 µM (inactive) | > 100 µM (inactive) | > 100 µM (inactive) | > 100 µM (inactive) | > 100 µM (inactive) | > 100 µM (inactive) | > 100 µM (inactive)
COc1ccc2c(cnc3c4cc(OC)c(OC)cc4ccc23)c1 | > 100 µM (inactive) | > 100 µM (inactive) | > 100 µM (inactive) | > 100 µM (inactive) | > 100 µM (inactive) | > 100 µM | > 100 µM (inactive) | > 100 µM (inactive) | > 100 µM (inactive) | > 100 µM (inactive) | > 100 µM (inactive) | > 100 µM (inactive) | > 100 µM (inactive) | > 100 µM (inactive) | > 100 µM (inactive) | > 100 µM (inactive) | > 100 µM (inactive) | > 100 µM (inactive) | > 100 µM (inactive) | > 100 µM (inactive)
C=C(CN(C)C)C(=O)c1cc(C)ccc1C | 11 µM (inactive) | 0.371 µM (active) | 16.9 µM (inactive) | 9.1 µM (inactive) | 4.84 µM (inactive) | 4.13 µM | 6.87 µM (inactive) | 8.45 µM (inactive) | 18.4 µM (inactive) | 8.83 µM (inactive) | 0.232 µM (active) | 0.726 µM (active) | 2.61 µM (inactive) | 18.6 µM (inactive) | 15.8 µM (inactive) | 15.7 µM (inactive) | 1.82 µM (inactive) | 2.96 µM (inactive) | 26.2 µM (inactive) | 10.5 µM (inactive)
CCSSCS(C)(=O)=O | 30.4 µM (inactive) | 0.975 µM (active) | 39.1 µM (inactive) | 58.5 µM (inactive) | 34.8 µM (inactive) | 8.02 µM | 11 µM (inactive) | 22.6 µM (inactive) | 56.6 µM (inactive) | 89.1 µM (inactive) | 11.9 µM (inactive) | 12.9 µM (inactive) | 22.1 µM (inactive) | 61.7 µM (inactive) | 18.9 µM (inactive) | 36.4 µM (inactive) | 5.05 µM (inactive) | 5.82 µM (inactive) | 55.1 µM (inactive) | 60.5 µM (inactive)
CC1=NN(c2cccc(Cl)c2)C2(C1)SCC(=O)N2c1nc2ccccc2s1 (stereo not drawn) | 27.1 µM (inactive) | 16.1 µM (inactive) | 22.3 µM (inactive) | 32.8 µM (inactive) | 20.2 µM (inactive) | 33.2 µM | 21.1 µM (inactive) | 25 µM (inactive) | 21.6 µM (inactive) | 19.1 µM (inactive) | 22.2 µM (inactive) | 17.9 µM (inactive) | 17.7 µM (inactive) | 25.5 µM (inactive) | 17.9 µM (inactive) | 27 µM (inactive) | 32.6 µM (inactive) | 21.8 µM (inactive) | 29.7 µM (inactive) | 29.5 µM (inactive)
COc1cc(Oc2nc3c(N)cc(C(F)(F)F)cc3nc2-c2ccccc2)cc(OC)c1OC | 1.49 µM (inactive) | 3.44 µM (inactive) | 3.24 µM (inactive) | 14.8 µM (inactive) | 3.48 µM (inactive) | 3.53 µM | 11.2 µM (inactive) | 0.445 µM (active) | 4.53 µM (inactive) | 10.2 µM (inactive) | 1.16 µM (inactive) | 0.624 µM (active) | 5.71 µM (inactive) | 2.17 µM (inactive) | 5.36 µM (inactive) | 5.9 µM (inactive) | 3.07 µM (inactive) | 3.97 µM (inactive) | 13.1 µM (inactive) | 1.66 µM (inactive)
O=C1/C(=C/c2ccc(O)cc2)CC/C1=C\c1ccc(O)cc1 | > 100 µM (inactive) | 7.14 µM (inactive) | > 100 µM (inactive) | > 100 µM (inactive) | > 100 µM (inactive) | > 100 µM | 51.2 µM (inactive) | > 100 µM (inactive) | > 100 µM (inactive) | > 100 µM (inactive) | 0.458 µM (active) | 3.37 µM (inactive) | > 100 µM (inactive) | > 100 µM (inactive) | > 100 µM (inactive) | 53.1 µM (inactive) | > 100 µM (inactive) | > 41 µM (inactive) | 99.8 µM (inactive) | 13.3 µM (inactive)
O=CN/C=C/c1cccc(O)c1 | 50.4 µM (inactive) | 59.8 µM (inactive) | 58.7 µM (inactive) | > 84.1 µM (inactive) | 48.4 µM (inactive) | 72.1 µM | 54.2 µM (inactive) | 38.2 µM (inactive) | > 72.1 µM (inactive) | 49.8 µM (inactive) | 38.5 µM (inactive) | > 43.7 µM (inactive) | 60 µM (inactive) | 62.4 µM (inactive) | > 74.6 µM (inactive) | 56.9 µM (inactive) | 69.7 µM (inactive) | 54 µM (inactive) | 69.2 µM (inactive) | 46.1 µM (inactive)
